Measurements reported in patent publication US9487488B2, “Sulfonamide compound” (MITSUBISHI TANABE PHARMA CORPORATION, priority 2012, dated 2016).

biological target: human TRPM8 (Homo sapiens (Human), UniProt Q7Z2W7); experiment: TRPM8 inhibition assay (menthol-induced calcium influx, FDSS); type: cell-based; conditions: HEK293 cells stably expressing human TRPM8; 100 μmol/L menthol; Fura-2AM calcium signal; read-out: TRPM8 Blocking Test (IC50/nmol/L)
Method: The functional activity of a test compound was determined by measuring change in intracellular calcium concentration using a calcium sensitive fluorescent dye. The change in fluorescent signal was measured by the cell imaging technology by Hamamatsu Photonics's Functional Drug Screening System (FDSS).
HEK293 cells stably expressing human TRPM8 were grown in a flask. On assay day, the culture medium was removed from the flask, and cells were washed with phosphate-buffered saline (PBS) and harvested with PBS containing 2 mmol/L of ethylenediaminetetraacetic acid disodium salt (EDTA-2Na). […] Subsequently, suspended 20,000 to 50,000 cells per well were incubated with a test compound (at varying concentrations) in each well at 37° C. for 20 minutes. Change in intracellular calcium concentration evoked by 100 μmol/L of menthol was measured for 2 minutes using FDSS. […] The concentration-response curve was generated using the average of quadruplicate wells for each data point.

Chain of human TRPM8 (Q7Z2W7 whole entry): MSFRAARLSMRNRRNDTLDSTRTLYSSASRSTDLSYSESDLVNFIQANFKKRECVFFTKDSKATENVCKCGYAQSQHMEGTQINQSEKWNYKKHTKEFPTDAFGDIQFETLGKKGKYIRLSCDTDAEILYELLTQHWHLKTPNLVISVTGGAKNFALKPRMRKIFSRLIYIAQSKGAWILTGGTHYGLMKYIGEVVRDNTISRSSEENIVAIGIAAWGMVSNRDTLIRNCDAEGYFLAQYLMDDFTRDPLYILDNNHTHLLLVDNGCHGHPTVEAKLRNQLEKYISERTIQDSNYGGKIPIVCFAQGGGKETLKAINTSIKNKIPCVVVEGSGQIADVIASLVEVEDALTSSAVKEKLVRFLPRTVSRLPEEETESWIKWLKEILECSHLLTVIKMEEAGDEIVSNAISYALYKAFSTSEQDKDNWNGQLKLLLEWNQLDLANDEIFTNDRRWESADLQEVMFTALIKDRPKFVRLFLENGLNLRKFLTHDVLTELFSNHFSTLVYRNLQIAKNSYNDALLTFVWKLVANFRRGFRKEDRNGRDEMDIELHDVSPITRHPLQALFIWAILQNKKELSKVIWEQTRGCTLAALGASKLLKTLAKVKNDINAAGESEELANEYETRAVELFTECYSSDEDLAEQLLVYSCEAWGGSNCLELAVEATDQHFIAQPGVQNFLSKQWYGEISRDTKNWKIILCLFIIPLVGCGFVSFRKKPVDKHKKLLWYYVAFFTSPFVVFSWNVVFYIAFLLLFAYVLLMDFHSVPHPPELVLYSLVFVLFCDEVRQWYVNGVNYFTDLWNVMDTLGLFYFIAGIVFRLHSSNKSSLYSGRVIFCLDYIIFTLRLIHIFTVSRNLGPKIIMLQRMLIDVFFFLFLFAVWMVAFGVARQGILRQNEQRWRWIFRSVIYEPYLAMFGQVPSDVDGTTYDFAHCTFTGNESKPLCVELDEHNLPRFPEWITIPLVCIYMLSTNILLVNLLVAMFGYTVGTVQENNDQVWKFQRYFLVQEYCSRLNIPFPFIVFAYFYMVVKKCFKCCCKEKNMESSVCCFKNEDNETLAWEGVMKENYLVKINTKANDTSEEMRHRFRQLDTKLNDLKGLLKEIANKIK

Row | SMILES | IC50
1 | O=S(=O)(c1ccc(CNS(=O)(=O)C(F)(F)F)cc1)N(Cc1ccc(OC(F)(F)F)cc1)c1ncc2ccccc2c1C1CC1 [Example 12, N-(4-cyclopropylisoquinolin-3-yl)-N-[4-(trifluoromethoxy)benzyl]-4-({[(trifluoromethyl)sulfonyl]amino}methyl)benzenesulfonamide] | 40.2 nmol/L
2 | O=c1[nH]c(-c2ccc(S(=O)(=O)N(Cc3ccc(OC(F)(F)F)cc3)c3ncc4ccccc4c3C3CC3)cc2)no1 [Example 7, N-(4-cyclopropylisoquinolin-3-yl)-4-(5-oxo-4,5-dihydro-1,2,4-oxadiazol-3-yl)-N-[4-(trifluoromethoxy)benzyl]benzenesulfonamide] | 1 nmol/L
3 | Cc1n[nH]c(-c2ccc(S(=O)(=O)N(Cc3ccc(OC(F)(F)F)cc3)c3ncc4ccccc4c3C3CC3)cn2)n1 [Example 30] | 1.1 nmol/L
4 | O=c1[nH][nH]c2cc(S(=O)(=O)N(Cc3ccc(OC(F)(F)F)cc3)c3ncc4ccccc4c3C3CC3)ccc12 [Example 13, N-(4-cyclopropylisoquinolin-3-yl)-3-oxo-N-[4-(trifluoromethoxy)benzyl]-2,3-dihydro-1H-indazole-6-sulfonamide] | 4.3 nmol/L
5 | Cc1cc(S(=O)(=O)N(Cc2ccc(C(F)(F)F)cn2)c2ncc3ccccc3c2C2CC2)ccc1C(=O)O [Example 37, 4-[((4-cyclopropylisoquinolin-3-yl){[5-(trifluoromethyl)pyridin-2-yl]methyl}amino)sulfonyl]-2-methylbenzoic acid] | 9.5 nmol/L
6 | Cc1n[nH]c(-c2ccc(S(=O)(=O)N(Cc3ccc(OC(F)(F)F)cc3)c3ncc4ccccc4c3C(F)(F)F)cc2)n1 [Example 21] | 1.1 nmol/L
7 | O=c1[nH]nnn1-c1ccc(S(=O)(=O)N(Cc2ccc(OC(F)(F)F)cc2)c2ncc3ccccc3c2C2CC2)cc1 [Example 4, N-(4-cyclopropylisoquinolin-3-yl)-4-(5-oxo-4,5-dihydro-1H-tetrazol-1-yl)-N-[4-(trifluoromethoxy)benzyl]benzenesulfonamide] | 1.1 nmol/L
8 | O=S(=O)(c1ccc(-c2nnn[nH]2)cn1)N(Cc1ccc(OC(F)(F)F)cc1)c1ncc2ccccc2c1C1CC1 [Example 3, N-(4-cyclopropylisoquinolin-3-yl)-5-(1H-tetrazol-5-yl)-N-[4-(trifluoromethoxy)benzyl]pyridine-2-sulfonamide] | 7.6 nmol/L
9 | Cc1cc(S(=O)(=O)N(Cc2ccc(OC(F)(F)F)cc2)c2ncc3ccccc3c2C2CC2)ccc1-c1noc(=O)[nH]1 [Example 34] | 0.5 nmol/L
10 | Cc1n[nH]c(-c2ccc(S(=O)(=O)N(Cc3ccc(C(F)(F)F)cn3)c3ncc4ccccc4c3C3CC3)cc2C)n1 [Example 27] | 0.8 nmol/L
11 | O=c1[nH]c(-c2ccc(S(=O)(=O)N(Cc3ccc(OC(F)(F)F)cc3)c3ncc4ccccc4c3C(F)(F)F)cn2)no1 [Example 33] | 3.6 nmol/L
12 | O=c1[nH]c(-c2ccc(S(=O)(=O)N(Cc3ccc(OC(F)(F)F)cc3)c3ncc4ccccc4c3C(F)(F)F)cc2)no1 [Example 8, 4-(5-oxo-4,5-dihydro-1,2,4-oxadiazol-3-yl)-N-[4-(trifluoromethoxy)benzyl]-N-[4-(trifluoromethyl)isoquinolin-3-yl]benzenesulfonamide] | 2.3 nmol/L
13 | Cc1n[nH]c(-c2ccc(S(=O)(=O)N(Cc3ccc(OC(F)(F)F)cc3)c3ncc4ccccc4c3C3CC3)cc2)n1 [Example 22] | 0.6 nmol/L
14 | O=S(=O)(c1ccc(-c2ncn[nH]2)nc1)N(Cc1ccc(OC(F)(F)F)cc1)c1ncc2ccccc2c1C(F)(F)F [Example 28] | 3.5 nmol/L
15 | Cc1cc(C(=O)O)ccc1S(=O)(=O)N(Cc1ccc(OC(F)(F)F)cc1)c1ncc2ccccc2c1C1CC1 [Example 38, 4-({(4-cyclopropylisoquinolin-3-yl)[4-(trifluoromethoxy)benzyl]amino}sulfonyl)-3-methylbenzoic acid] | 0.7 nmol/L
16 | O=S(=O)(c1ccc(-c2nnn[nH]2)cc1)N(Cc1ccc(OC(F)(F)F)cc1)c1ncc2ccccc2c1C1CC1 [Example 1, N-(4-cyclopropylisoquinolin-3-yl)-4-(1H-tetrazol-5-yl)-N-[4-(trifluoromethoxy)benzyl]benzenesulfonamide] | 0.3 nmol/L

Row | SMILES | IC50
17 | COCc1cc(S(=O)(=O)N(Cc2ccc(OC(F)(F)F)cc2)c2ncc3ccccc3c2C2CC2)ccc1C(=O)O [Example 39, 4-({(4-cyclopropylisoquinolin-3-yl)[4-(trifluoromethoxy)benzyl]amino}sulfonyl)-2-(methoxymethyl)benzoic acid] | 1.4 nmol/L
18 | Cc1n[nH]c(-c2ccc(S(=O)(=O)N(Cc3ccc(C(F)(F)F)cn3)c3ncc4ccccc4c3C3CC3)cc2)n1 [Example 25] | 0.7 nmol/L
19 | Cc1cc(S(=O)(=O)N(Cc2ccc(OC(F)(F)F)cc2)c2ncc3ccccc3c2C2CC2)ccc1C(=O)O [Example 36, 4-({(4-cyclopropylisoquinolin-3-yl)[4-(trifluoromethoxy)benzyl]amino}sulfonyl)-2-methylbenzoic acid] | 1.4 nmol/L
20 | O=S(=O)(c1ccc(-c2nnn[nH]2)nc1)N(Cc1ccc(OC(F)(F)F)cc1)c1ncc2ccccc2c1C1CC1 [Example 2, N-(4-cyclopropylisoquinolin-3-yl)-6-(1H-tetrazol-5-yl)-N-[4-(trifluoromethoxy)benzyl]pyridine-3-sulfonamide] | 0.7 nmol/L
21 | O=S(=O)(c1ccc(-c2ncn[nH]2)cc1)N(Cc1ccc(C(F)(F)F)cn1)c1ncc2ccccc2c1C1CC1 [Example 24] | 1.2 nmol/L
22 | O=c1[nH]c(-c2ccc(S(=O)(=O)N(Cc3ccc(C(F)(F)F)cn3)c3ncc4ccccc4c3C3CC3)cc2)no1 [Example 31] | 1.1 nmol/L
23 | Cc1cc(S(=O)(=O)N(Cc2ccc(C(F)(F)F)cn2)c2ncc3ccccc3c2C2CC2)ccc1-c1ncn[nH]1 [Example 26] | 1 nmol/L
24 | Cc1cc(S(=O)(=O)N(Cc2ccc(OC(F)(F)F)cc2)c2ncc3ccccc3c2C2CC2)ccc1-c1ncn[nH]1 [Example 23] | 0.5 nmol/L
25 | O=S(=O)(c1ccc(-c2nnn[nH]2)cc1)N(Cc1ccc(OC(F)(F)F)cc1)c1ncc2ccccc2c1C(F)(F)F [Example 15] | 2 nmol/L
26 | Cc1cc(S(=O)(=O)N(Cc2ccc(OC(F)(F)F)cc2)c2ncc3ccccc3c2C2CC2)ccc1-c1nnn[nH]1 [Example 17] | 0.3 nmol/L
27 | Cc1c(N(Cc2ccc(OC(F)(F)F)cc2)S(=O)(=O)c2ccc(-c3nnn[nH]3)cc2)nc(C2CC2)c2ccccc12 [Example 14] | 0.7 nmol/L
28 | O=S(=O)(c1ccc(-c2nnn[nH]2)nc1)N(Cc1ccc(OC(F)(F)F)cc1)c1ncc2ccccc2c1C(F)(F)F [Example 16] | 1.6 nmol/L
29 | O=S(=O)(c1ccc(-c2ncn[nH]2)cc1)N(Cc1ccc(OC(F)(F)F)cc1)c1ncc2ccccc2c1C1CC1 [Example 5, N-(4-cyclopropylisoquinolin-3-yl)-4-(2H-1,2,4-triazol-3-yl)-N-[4-(trifluoromethoxy)benzyl]benzenesulfonamide] | 3.4 nmol/L
30 | CC(=O)NCc1ccc(S(=O)(=O)N(Cc2ccc(OC(F)(F)F)cc2)c2ncc3ccccc3c2C2CC2)cc1 [Example 10, N-[4-({(4-cyclopropylisoquinolin-3-yl)[4-(trifluoromethoxy)benzyl]amino}sulfonyl)benzyl]acetamide] | 23.9 nmol/L
31 | O=S(=O)(c1ccc(-c2nnn[nH]2)cc1)N(Cc1ccc(C(F)(F)F)cn1)c1ncc2ccccc2c1C1CC1 [Example 18] | 0.9 nmol/L

Results, then the molecule that gave them:

Row | IC50 | SMILES
32 | 10.9 nmol/L | Cc1cc(S(=O)(=O)N(Cc2ccc(OC(F)(F)F)cc2)c2ncc3ccccc3c2C2CC2)cc(C)c1C(=O)O [Example 51]
33 | 1.1 nmol/L | CNc1cc(S(=O)(=O)N(Cc2ccc(OC(F)(F)F)cc2)c2ncc3ccccc3c2C2CC2)ccc1C(=O)O [Example 41, 4-({(4-cyclopropylisoquinolin-3-yl)[4-(trifluoromethoxy)benzyl]amino}sulfonyl)-2-(methylamino)benzoic acid]
34 | 1 nmol/L | O=C(O)c1ccc(S(=O)(=O)N(Cc2ccc(OC(F)(F)F)cc2)c2ncc3ccccc3c2C2CC2)cc1F [Example 52]
35 | 11.7 nmol/L | COc1cc(S(=O)(=O)N(Cc2ccc(OC(F)(F)F)cc2)c2ncc3ccccc3c2C2CC2)ccc1C(=O)O [Example 50]
36 | 2.1 nmol/L | CCc1cc(S(=O)(=O)N(Cc2ccc(OC(F)(F)F)cc2)c2ncc3ccccc3c2C2CC2)ccc1C(=O)O [Example 54]
37 | 10.1 nmol/L | O=C(O)c1ccc(S(=O)(=O)N(Cc2ccc(OC(F)(F)F)cc2)c2ncc3ccccc3c2C2CC2)cc1C1CC1 [Example 43]
38 | 18.1 nmol/L | O=C(O)c1ccc(S(=O)(=O)N(Cc2ccc(OC(F)(F)F)cc2)c2ncc3ccccc3c2C2CC2)cc1C(F)(F)F [Example 49]
39 | 2.5 nmol/L | CCCc1cc(S(=O)(=O)N(Cc2ccc(OC(F)(F)F)cc2)c2ncc3ccccc3c2C2CC2)ccc1C(=O)O [Example 57]
40 | 3 nmol/L | CCc1cc(S(=O)(=O)N(Cc2ccc(OC(F)(F)F)cc2)c2ncc3ccccc3c2C(F)(F)F)ccc1C(=O)O [Example 53]
41 | 3.8 nmol/L | O=C(O)c1ccc(S(=O)(=O)N(Cc2ccc(OC(F)(F)F)cc2)c2ncc3ccccc3c2C2CC2)cc1Cl [Example 47]
42 | 3.3 nmol/L | Cc1cc(S(=O)(=O)N(Cc2ccc(OC(F)(F)F)cc2)c2ncc3ccccc3c2C(F)(F)F)ccc1C(=O)O [Example 46]
43 | 4.6 nmol/L | O=C(O)c1ccc(S(=O)(=O)N(Cc2ccc(OC(F)(F)F)cc2)c2ncc3ccccc3c2C2CC2)cc1N1CCCC1 [Example 58]
44 | 13.6 nmol/L | O=C(O)c1ccc(S(=O)(=O)N(Cc2ccc(OC(F)(F)F)cc2)c2ncc3ccccc3c2C2CC2)cc1-c1ccccc1 [Example 55]
45 | 19.6 nmol/L | O=C(O)c1ccc(S(=O)(=O)N(Cc2ccc(OC(F)(F)F)cc2)c2ncc3ccccc3c2C2CC2)cc1N1CCOCC1 [Example 60]
46 | 5.6 nmol/L | CC(C)c1cc(S(=O)(=O)N(Cc2ccc(OC(F)(F)F)cc2)c2ncc3ccccc3c2C2CC2)ccc1C(=O)O [Example 44]
